Twelve molecules from patent publication US10231954B2, “Neurodegenerative therapies” (LYTIX BIOPHARMA AS, priority 2014, dated 2019) can be followed below.

Where two headings read alike, the source gives them in different places.

Common to all, as to type: biochemical
In one assay the target is Lck (Homo sapiens, UniProt P06239). The assay is described as follows: Kinase profiling Lck. The note with it: read-out: residual kinase activity, Lck. The text has this: (§1) Any value less that 25 is considered to be highly significant inhibition.
Chain of Lck (P06239 whole entry, species assumed): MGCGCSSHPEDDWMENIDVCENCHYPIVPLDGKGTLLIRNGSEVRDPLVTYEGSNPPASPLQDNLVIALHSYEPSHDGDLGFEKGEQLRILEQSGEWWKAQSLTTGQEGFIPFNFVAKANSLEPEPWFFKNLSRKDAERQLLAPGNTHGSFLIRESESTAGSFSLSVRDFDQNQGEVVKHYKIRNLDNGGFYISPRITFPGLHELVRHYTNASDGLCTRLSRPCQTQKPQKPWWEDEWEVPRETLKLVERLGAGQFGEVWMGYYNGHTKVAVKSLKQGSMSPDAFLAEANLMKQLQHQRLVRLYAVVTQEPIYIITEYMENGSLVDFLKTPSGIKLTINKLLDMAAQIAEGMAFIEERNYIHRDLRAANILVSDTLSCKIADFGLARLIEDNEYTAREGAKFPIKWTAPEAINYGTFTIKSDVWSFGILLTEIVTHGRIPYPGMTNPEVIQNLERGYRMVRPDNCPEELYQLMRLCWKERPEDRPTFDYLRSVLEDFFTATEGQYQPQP
Another assay concerns the target JNK2 (Homo sapiens, UniProt P45984). The assay is described as follows: Kinase profiling JNK2. The note with it: for remaining activity at 100 µM: read-out: residual kinase activity, JNK2.
Description: as §1

In another assay the target is SRPK1 (Homo sapiens, UniProt Q96SB4). The assay is described as follows: Kinase profiling SRPK1. The note with it: read-out: residual kinase activity, SRPK1.
Chain of SRPK1 (Q96SB4 whole entry, species assumed): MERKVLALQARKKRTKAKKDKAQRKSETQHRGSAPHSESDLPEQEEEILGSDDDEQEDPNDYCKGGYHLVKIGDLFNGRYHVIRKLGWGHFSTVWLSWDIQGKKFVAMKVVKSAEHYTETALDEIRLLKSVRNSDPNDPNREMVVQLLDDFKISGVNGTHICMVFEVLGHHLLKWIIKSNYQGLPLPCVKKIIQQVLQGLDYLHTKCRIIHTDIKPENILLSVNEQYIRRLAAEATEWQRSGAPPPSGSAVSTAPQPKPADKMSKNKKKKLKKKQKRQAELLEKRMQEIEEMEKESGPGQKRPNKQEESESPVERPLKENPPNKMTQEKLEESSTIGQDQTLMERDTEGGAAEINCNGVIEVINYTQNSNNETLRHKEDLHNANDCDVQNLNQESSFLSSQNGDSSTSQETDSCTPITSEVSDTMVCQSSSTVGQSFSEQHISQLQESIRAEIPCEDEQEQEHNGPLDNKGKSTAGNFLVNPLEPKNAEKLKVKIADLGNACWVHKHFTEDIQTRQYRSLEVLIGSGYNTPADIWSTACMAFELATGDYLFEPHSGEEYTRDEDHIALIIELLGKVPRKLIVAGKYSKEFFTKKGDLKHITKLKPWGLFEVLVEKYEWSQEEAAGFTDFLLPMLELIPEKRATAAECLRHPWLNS
Description: as §1

The target in another assay is T1, PKCz (Homo sapiens, UniProt Q05513).
T1 sequence (Q05513 1-592): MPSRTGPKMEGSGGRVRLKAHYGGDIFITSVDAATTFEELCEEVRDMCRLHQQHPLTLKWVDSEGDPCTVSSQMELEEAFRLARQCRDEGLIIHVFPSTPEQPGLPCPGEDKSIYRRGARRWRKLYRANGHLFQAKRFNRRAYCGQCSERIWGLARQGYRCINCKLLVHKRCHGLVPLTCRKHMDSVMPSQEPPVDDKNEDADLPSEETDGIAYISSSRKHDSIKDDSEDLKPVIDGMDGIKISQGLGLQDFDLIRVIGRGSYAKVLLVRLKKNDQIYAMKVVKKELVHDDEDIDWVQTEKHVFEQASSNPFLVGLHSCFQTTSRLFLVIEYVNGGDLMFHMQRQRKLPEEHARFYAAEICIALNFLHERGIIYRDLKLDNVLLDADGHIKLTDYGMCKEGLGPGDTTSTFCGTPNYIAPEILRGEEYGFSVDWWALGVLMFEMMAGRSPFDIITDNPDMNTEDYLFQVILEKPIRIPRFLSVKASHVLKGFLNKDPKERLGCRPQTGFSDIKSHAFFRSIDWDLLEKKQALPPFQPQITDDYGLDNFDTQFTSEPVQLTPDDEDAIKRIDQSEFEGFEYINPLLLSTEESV
The assay is described as follows: Kinase profiling PKCz. The note with it: for remaining activity at 100 µM: read-out: residual kinase activity, PKCz.
Description: as §1

In a further assay the target is T2, TTK (Homo sapiens, UniProt P33981).
T2 sequence (P33981 1-857): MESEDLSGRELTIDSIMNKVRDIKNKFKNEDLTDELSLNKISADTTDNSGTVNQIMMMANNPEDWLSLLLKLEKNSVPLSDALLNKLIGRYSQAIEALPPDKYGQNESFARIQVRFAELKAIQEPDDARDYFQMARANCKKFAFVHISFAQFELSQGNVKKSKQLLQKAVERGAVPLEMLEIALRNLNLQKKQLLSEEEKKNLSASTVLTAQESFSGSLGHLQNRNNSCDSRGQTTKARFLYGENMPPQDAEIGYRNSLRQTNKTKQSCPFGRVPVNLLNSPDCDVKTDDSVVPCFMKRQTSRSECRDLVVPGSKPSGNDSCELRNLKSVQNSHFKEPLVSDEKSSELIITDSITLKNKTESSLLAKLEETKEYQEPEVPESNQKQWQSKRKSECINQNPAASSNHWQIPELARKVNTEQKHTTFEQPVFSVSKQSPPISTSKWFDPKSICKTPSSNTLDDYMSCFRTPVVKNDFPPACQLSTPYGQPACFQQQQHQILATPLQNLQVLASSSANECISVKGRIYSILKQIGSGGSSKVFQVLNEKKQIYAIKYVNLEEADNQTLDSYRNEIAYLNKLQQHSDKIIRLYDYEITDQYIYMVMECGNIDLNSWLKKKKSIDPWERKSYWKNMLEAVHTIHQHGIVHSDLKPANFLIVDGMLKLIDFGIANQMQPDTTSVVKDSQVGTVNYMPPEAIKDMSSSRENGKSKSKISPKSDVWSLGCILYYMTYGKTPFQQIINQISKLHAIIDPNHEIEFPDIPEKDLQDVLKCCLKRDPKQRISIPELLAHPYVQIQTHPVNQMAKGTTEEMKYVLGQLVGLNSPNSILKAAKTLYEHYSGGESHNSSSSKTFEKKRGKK
The assay is described as follows: Kinase profiling TTK. The note with it: read-out: residual kinase activity, TTK.
Description: as §1

For a further assay, the target named is Src (Homo sapiens, UniProt P12931). The assay is described as follows: Kinase profiling Src. Particulars: read-out: residual kinase activity, Src.
Chain of Src (P12931 whole entry, species assumed): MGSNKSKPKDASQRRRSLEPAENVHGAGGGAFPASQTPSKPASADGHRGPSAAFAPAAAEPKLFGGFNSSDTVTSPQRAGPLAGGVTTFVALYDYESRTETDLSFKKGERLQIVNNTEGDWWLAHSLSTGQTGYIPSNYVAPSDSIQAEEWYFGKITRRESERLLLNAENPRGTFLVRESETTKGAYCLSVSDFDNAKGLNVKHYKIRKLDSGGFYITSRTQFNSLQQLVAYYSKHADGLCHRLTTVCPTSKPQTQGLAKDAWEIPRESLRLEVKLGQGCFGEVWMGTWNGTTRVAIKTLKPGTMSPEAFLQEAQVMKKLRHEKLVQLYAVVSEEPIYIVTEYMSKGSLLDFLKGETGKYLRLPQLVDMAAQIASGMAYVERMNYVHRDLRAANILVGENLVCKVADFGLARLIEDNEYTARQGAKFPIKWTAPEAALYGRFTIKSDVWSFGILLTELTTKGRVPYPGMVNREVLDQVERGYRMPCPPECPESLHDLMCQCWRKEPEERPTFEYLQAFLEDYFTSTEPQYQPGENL
Description: as §1

The target in the next assay is PKCγ (Homo sapiens, UniProt P05129). The experiment in a line: Kinase profiling PKCγ. The note with it: for remaining activity at 100 µM: read-out: residual kinase activity, PKCγ.
Description: as §1

Another assay deals with T3, LKB1 (Homo sapiens, UniProt Q15831).
T3 sequence (Q15831 1-433): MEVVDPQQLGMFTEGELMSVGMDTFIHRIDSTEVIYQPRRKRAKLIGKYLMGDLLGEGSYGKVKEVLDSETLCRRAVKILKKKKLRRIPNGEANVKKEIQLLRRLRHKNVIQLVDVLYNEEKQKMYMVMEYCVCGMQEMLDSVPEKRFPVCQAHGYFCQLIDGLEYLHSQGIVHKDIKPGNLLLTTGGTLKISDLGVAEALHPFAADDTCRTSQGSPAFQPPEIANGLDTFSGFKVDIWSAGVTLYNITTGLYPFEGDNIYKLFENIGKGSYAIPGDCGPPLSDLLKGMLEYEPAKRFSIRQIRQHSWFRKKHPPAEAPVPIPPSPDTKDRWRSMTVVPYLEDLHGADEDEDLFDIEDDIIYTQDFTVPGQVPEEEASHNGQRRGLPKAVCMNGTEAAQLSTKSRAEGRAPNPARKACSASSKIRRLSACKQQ
T3 sequence (Q7RTN6 1-431 partner): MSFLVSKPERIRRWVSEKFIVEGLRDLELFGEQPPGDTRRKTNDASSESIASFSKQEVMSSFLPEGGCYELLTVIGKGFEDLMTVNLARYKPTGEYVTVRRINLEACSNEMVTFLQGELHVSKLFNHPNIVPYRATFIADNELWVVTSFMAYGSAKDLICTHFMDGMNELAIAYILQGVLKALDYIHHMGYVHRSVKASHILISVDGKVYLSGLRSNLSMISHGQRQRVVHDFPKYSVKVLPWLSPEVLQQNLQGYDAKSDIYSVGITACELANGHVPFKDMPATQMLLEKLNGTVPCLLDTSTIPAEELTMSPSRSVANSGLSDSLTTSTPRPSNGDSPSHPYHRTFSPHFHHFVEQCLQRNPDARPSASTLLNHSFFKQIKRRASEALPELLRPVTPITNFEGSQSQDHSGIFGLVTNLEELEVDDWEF
T3 sequence (Q9Y376 1-341 partner): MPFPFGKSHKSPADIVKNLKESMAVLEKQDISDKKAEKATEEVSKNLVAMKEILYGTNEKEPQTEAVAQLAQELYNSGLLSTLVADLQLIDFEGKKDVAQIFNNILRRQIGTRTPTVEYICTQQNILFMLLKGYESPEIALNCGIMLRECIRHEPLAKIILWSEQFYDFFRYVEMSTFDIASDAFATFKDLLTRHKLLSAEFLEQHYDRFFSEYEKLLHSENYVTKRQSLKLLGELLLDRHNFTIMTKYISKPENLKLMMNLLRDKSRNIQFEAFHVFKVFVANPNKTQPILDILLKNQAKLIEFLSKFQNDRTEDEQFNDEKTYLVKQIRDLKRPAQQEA
The experiment in a line: Kinase profiling LKB1. Particulars: read-out: residual kinase activity, LKB1.
Description: as §1

In a further assay the test system is CK2. The experiment in a line: Kinase profiling CK2.
Description: as §1

The mark [1] stands for this setting: 100 micromolar inhibitor concentration, 100 is no change.
The mark [2] stands for this setting: 100 micromolar inhibitor, 100 = no change.

Chain of JNK2 (P45984 whole entry, species assumed): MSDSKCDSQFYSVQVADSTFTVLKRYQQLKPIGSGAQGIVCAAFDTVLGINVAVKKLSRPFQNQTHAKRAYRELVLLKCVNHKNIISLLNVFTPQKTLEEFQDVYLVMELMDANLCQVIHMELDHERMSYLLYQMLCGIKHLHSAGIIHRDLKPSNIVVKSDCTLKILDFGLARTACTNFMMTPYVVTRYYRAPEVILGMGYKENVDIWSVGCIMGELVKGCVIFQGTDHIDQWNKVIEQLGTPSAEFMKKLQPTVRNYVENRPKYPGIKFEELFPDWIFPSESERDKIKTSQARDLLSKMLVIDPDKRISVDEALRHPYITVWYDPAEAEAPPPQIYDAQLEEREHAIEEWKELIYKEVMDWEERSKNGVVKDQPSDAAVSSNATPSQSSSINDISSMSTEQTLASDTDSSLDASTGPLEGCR

As for `CC(=O)Nc1nc2cc(O)ccc2s1` [Compound 01-66, N-(5-hydroxybenzo[d]thiazol-2-yl)acetamide], the remaining activity at 100 µM was 69% at Lck; 63% on JNK2; 59% on SRPK1; 98% on PKCz; 39% at TTK; 45% at Src. For the same molecule, the remaining activity at 100 µM at PKCγ was 99%; on LKB1, 38%. The “residual kinase activity, CK2” value with CK2 (setting [1]) was 54.

For the molecule `CC(=O)Nc1nc2ccc(O)cc2s1` [Compound 01-71], the remaining activity at 100 µM at Lck (setting [1]) turned out to be 192%; on JNK2 (setting [1]), 82%; at SRPK1 (setting [1]), 44%; on PKCz (setting [1]), 74%; on TTK (setting [1]), 31%; on Src (setting [1]) it was 57%. For the same molecule, the remaining activity at 100 µM on PKCγ (setting [1]) came out at 76%; at LKB1 (setting [1]), 17%. Moreover, in the assay on CK2 (setting [1]), the “residual kinase activity, CK2” value worked out at 23.

As for `CC(=O)Nc1nc2ccc(C(F)(F)F)cc2s1` [Compound 01-90], the remaining activity at 100 µM on Lck (setting [1]) was found to be 53%; at JNK2 (setting [1]), 87%; on SRPK1 (setting [1]), 41%; at PKCz (setting [1]) it was 81%; on TTK (setting [1]), 49%; on Src (setting [1]) it was 63%. The remaining activity at 100 µM at PKCγ (setting [1]) is 53%; at LKB1 (setting [1]), 79%. Moreover, in the assay with CK2 (setting [1]), the “residual kinase activity, CK2” value was 92.

For `CC(=O)Nc1nc2ccc(C#N)cc2s1` [Compound 01-94], the remaining activity at 100 µM at Lck (setting [1]) was found to be 168%; on JNK2 (setting [1]) it was 82%; at SRPK1 (setting [1]), 47%; on PKCz (setting [1]), 80%; on TTK (setting [1]), 33%; at Src (setting [1]), 94%. In addition, the remaining activity at 100 µM at PKCγ (setting [1]) is 83%; at LKB1 (setting [1]), 35%. Besides, the “residual kinase activity, CK2” value in the assay on CK2 (setting [1]) is on record as 66.

`CC(=O)Nc1cccc(NC(=O)c2nc3ccc(O)cc3s2)c1` [Compound 03-07, N-(3-acetamidophenyl)-6-hydroxybenzo[d]thiazole-2-carboxamide]: the remaining activity at 100 µM turned out to be 88% on Lck (setting [2]); 104% on JNK2 (setting [2]); 27% on SRPK1 (setting [2]); 107% at PKCz (setting [2]); 28% at TTK (setting [2]); 101% on Src (setting [2]). In addition, the values for the remaining activity at 100 µM at PKCγ (setting [2]) and at LKB1 (setting [2]) were 98% and 83%, respectively. The “residual kinase activity, CK2” value with CK2 (setting [2]) worked out at 35.

In the case of `CC(=O)Nc1cccc(C(=O)Nc2nc3ccc(O)cc3s2)c1` [Compound 03-58], on JNK2 (setting [1]), the “residual kinase activity, JNK2” value is given as 99. Further, at PKCz (setting [1]), the “residual kinase activity, PKCz” value came out at 84. Further, the “residual kinase activity, PKCγ” value on PKCγ (setting [1]) turned out to be 86.

As to `CC(=O)NC(C)C(=O)Nc1nc2ccc(C(F)(F)F)cc2s1` (stereo not drawn) [Compound 03-80], the “residual kinase activity, JNK2” value at JNK2 (setting [1]) stood at 87. The “residual kinase activity, PKCz” value at PKCz (setting [1]) came out at 75. Also, the “residual kinase activity, PKCγ” value on PKCγ (setting [1]) was found to be 87.

Take `CC(=O)Nc1ccccc1C(=O)Nc1nc2ccc(O)cc2s1` [Compound 08-39]: on JNK2 (setting [1]), the “residual kinase activity, JNK2” value was 93. Further, at PKCz (setting [1]), the “residual kinase activity, PKCz” value was determined as 38. Moreover, the “residual kinase activity, PKCγ” value on PKCγ (setting [1]) is 44.

For `COc1ccc2sc(NC(=O)c3ccc(NC(C)=O)cc3)nc2c1` [MS:LY-2-77], the “residual kinase activity, JNK2” value at JNK2 (setting [1]) came out at 99. Also, at PKCz (setting [1]), the “residual kinase activity, PKCz” value is 107. Further, at PKCγ (setting [1]), the “residual kinase activity, PKCγ” value came to 94.

As to `COc1ccc2sc(NC(=O)c3cccc(NC(C)=O)c3)nc2c1` [MS:LY-2-85], on JNK2 (setting [1]), the “residual kinase activity, JNK2” value is 100. Also, the “residual kinase activity, PKCz” value on PKCz (setting [1]) stood at 101. The “residual kinase activity, PKCγ” value at PKCγ (setting [1]) is reported as 80.

As to `CC(=O)Nc1ccc(C(=O)Nc2nc3cc(O)ccc3s2)cc1` [MS:LY-2-87], the “residual kinase activity, JNK2” value at JNK2 (setting [1]) amounted to 105. Besides, the “residual kinase activity, PKCz” value on PKCz (setting [1]) amounted to 83. At PKCγ (setting [1]), the “residual kinase activity, PKCγ” value is given as 74.

With `CC(=O)Nc1cccc(C(=O)Nc2nc3cc(O)ccc3s2)c1` [MS:LY-2-89], the “residual kinase activity, JNK2” value at JNK2 (setting [1]) is on record as 93. In addition, the “residual kinase activity, PKCz” value at PKCz (setting [1]) turned out to be 80. Besides, at PKCγ (setting [1]), the “residual kinase activity, PKCγ” value worked out at 63.
